{"source": "patent US20140289906A1", "about": "“Compositions Having Dicamba Decarboxylase Activity and Methods of Use” (priority 2013, published 2014)", "test_system": "Arabidopsis ecotype Columbia (Col-0)", "assay": "Arabidopsis root growth inhibition assay", "settings": "6 days", "procedure": "Phytotoxicity of other major dicamba decarboxylaed products was evaluated using Arabidopsis root growth inhibition assay. 4-chloro-3-methoxy phenol was purchased from Biogene Organics, Inc. (catalog number U06-642-79). 2,5-dichloro phenol was purchased from Sigma-Aldrich (catalog number D70007). Briefly, seeds of Arabidopsis ecotype Columbia (Col-0) were surface sterilized with 70% (v/v) ethanol for 5 minutes and 10% (v/v) bleach for 15 minutes. After being washed three times with distilled water, the seeds were germinated on 1× Murashige and Skoog (MS) medium with a pH of 5.7, 3% (w/v) sucrose, and 0.8% (w/v) agar. After incubation for 3.5 days, the seedlings were transferred to 1×MS medium containing B5 vitamin, 3% (w/v) sucrose, 1.2% (w/v) agar, and filter sterilized compounds was added to the media at 60° C. The concentrations of compounds including dicamba were 0 μM, 1.0 μM, and 10 μM. The seedlings were placed vertically, and the temperature maintained at 23° C. to allow root growth along the surface of the agar, with a photoperiod of 16 h of light and 8 h of dark."}
{"smiles": "Oc1cc(Cl)ccc1Cl", "note": "[2,5-dichloro phenol]", "values": [{"measurement": "Arabidopsis root growth", "setting": "1.0 uM in MS medium", "result": "did not have any effect"}, {"measurement": "Arabidopsis root growth", "setting": "10 uM in MS medium", "result": "did not have any effect"}]}
